# Experimental data as given in patent US4596806A, “7-piperidino-1,2,3,5-tetrahydroimidazo[2,1-b]-quinazolin-2-one having platelet aggregation inhibitory activity” (Daiichi Seiyaku Co., Ltd., priority 1983, dated 1986).
# Legend:
# B16BL6 = assay: Test of Inhibition on Pulmonary Metastasis, B16BL6; assay type: in vivo, C57BL/6 mouse; conditions: day 13, mean ± standard error
# Method: 1×10^5 cells/animal of B16BL6 or 7×10^5 cells/animal of 3LL were inoculated to the tail vein of 10 to 12 6-week-old C57BL/6 male mice per group (body weight: about 18.5 g). The compound (I) (dihydrochloride monohydrate) dissolved in a physiological saline solution (J.P.) was administered to each animal at a dose of 1, 3 or 10 mg/kg orally 24 hours, 1 hour before and 1 hour after the inoculation, or intravenously immediately before the inoculation. On the 13th day from the inoculation of B16BL6 or 11th day from the inoculation of 3LL, the number of metastatic nodules in the lungs was counted using an operating microscope.
# [1] = tested on: platelet aggregation due to addition of B16BL6 cells; assay: Test of Inhibition of Platelet Aggregation Caused by Cancer Cells (in vitro), B16BL6; assay type: cell-based, C57BL/6 mouse
# Method: Blood was taken from the abdominal vein of a 7-week-old C57BL/6 male mouse into a syringe containing 1/10 volume of a 3.13% aqueous solution of sodium citrate dihydrate as an anticoagulant. The thus prepared citrated blood sample was centrifuged at 230×g at room temperature for 7 minutes. The resulting supernatant fluid was used as PRP. The remainder was further centrifuged at 1,500×g at room temperature for 10 minutes, and the supernatant fluid was used as platelet-poor-plasma (PPP). Platelet count in PRP was adjusted to 450,000 per mm^3 by PPP. A 450 μl of PRP was placed in a reaction tube and subjected to centrifugation at 950 rpm at 30° C. About 1 minute later while continuing the centrifugation, 5 μl of a 200 mM calcium chloride aqueous solution was added to the system to a final concentration of […]. 30 seconds later, 5 μl of a saline solution of the compound (I) (dihydrochloride monohydrate) was added to the system, and additional 30 seconds later, 50 μl of a cell suspension containing 1×10^5 cells of B16 melamona BL6 (B16BL6) originated in a C57BL mouse or 50 μl of a cell suspension containing 1×10^6 cells of Lewis lung cancer (3LL) originated in a C57BL mouse was added thereto. Platelet aggregation of the sample system was determined from changes in transmittancy by use of an aggregometer. […]
compound,measurement,setting,value
"O=C1CN2Cc3cc(N4CCCCC4)ccc3N=C2N1 [Compound (I), 7-piperidino-1,2,3,5-tetrahydroimidazo[2,1-b]quinazolin-2-one]",Number of Metastatic Nodules in the Lungs,B16BL6; 1 mg/kg,5.5 ± 1.1
same,Number of Metastatic Nodules in the Lungs,B16BL6; 3 mg/kg,5.3 ± 1.1
same,Number of Metastatic Nodules in the Lungs,B16BL6; 10 mg/kg,6.4 ± 1.1
same,inhibition of platelet aggregation due to addition of B16BL6 cells,[1]; 0.3 μM,partially inhibited
same,inhibition of platelet aggregation due to addition of B16BL6 cells,[1]; final concentration of 3 μM or more,completely inhibited
